Assay results reported in patent US7022691B2, “Inhibitors of serine and metallo-β-lactamases” (priority 2002, dated 2006).
Structures can show the parent of a compound that is named as a salt. Where two headings read alike, the source gives them in different places.

Tests used:
[1] = molecular target: L1 metallo-β-lactamase (class B) (Stenotrophomonas maltophilia, UniProt P52700); assay: Inhibition of L1 metallo-β-lactamase (nitrocefin hydrolysis); type: biochemical
Protocol: (§1) Representative compounds of the invention were evaluated as inhibitors of two serine β-lactamases: Enterobacter cloacae P99 (class C), TEM-1 (class A), as well as two class B enzymes: the L1 metallo-β-lactamse derived from Stenotrophomonas maltophilia) and the metallo-β-lactamase derived from the Bacillus cereus microorganism. The IC50 value of each compound was determined as follows. Assay method involves 4 min incubation of a solution of inhibitor and enzyme (0.1 to 1 μM in enzyme), followed by transfer of an aliquot into a dilute solution of the substrate nitrocefin. Hydrolysis is monitored spectrophotometrically at 480 nm for 1 min. The rate is constant throughout this period. Error is ±10%, based on multiple experiments.

[2] = molecular target: BC1 metallo-β-lactamase (class B) (Bacillus cereus, UniProt P04190); assay: biochemical
Protocol: as §1

[3] = molecular target: Enterobacter cloacae P99 (class C) serine β-lactamase (Enterobacter cloacae, UniProt P05364); assay: biochemical
Protocol: as §1, with “min.” for “min. The rate is constant throughout this period. Error is ±10%, based on multiple experiments.”

[4] = tested on: class B β-lactamases; assay: Inhibition of class B β-lactamases, summary in words; type: biochemical; conditions: summary of Table 1 in words
Protocol: as §1

[5] = molecular target: TEM-1 (class A) serine β-lactamase (Escherichia coli, UniProt P62593); assay: Inhibition of TEM-1 β-lactamase (nitrocefin hydrolysis); type: biochemical; conditions: 4 min incubation of inhibitor and enzyme (0.1 to 1 μM), substrate nitrocefin, 480 nm; error ±10%
Protocol: as §1, with “min.” for “min. The rate is constant throughout this period. Error is ±10%, based on multiple experiments.”

[6] = tested on: serine and metallo-β-lactamases; assay: Inhibition of serine and metallo-β-lactamases, summary in words; type: biochemical; conditions: summary of Table 1 in words
Protocol: as §1, with “min.” for “min. The rate is constant throughout this period. Error is ±10%, based on multiple experiments.”

[7] = 4 min incubation of inhibitor and enzyme (0.1 to 1 μM), substrate nitrocefin, 480 nm, error ±10%, read-out: Inhibition IC50, L1 (Class B) (Metallo)
[8] = 4 min incubation of inhibitor and enzyme (0.1 to 1 μM), substrate nitrocefin, 480 nm, error ±10%, read-out: Inhibition IC50, P99 (Class C) (Serine)
[9] = read-out: Inhibition IC50, BC1 (Class B) (Metallo), 4 min incubation of inhibitor and enzyme (0.1 to 1 μM), substrate nitrocefin, 480 nm, error ±10%
[10] = Inhibition IC50, P99 (Class C) (Serine), 4 min incubation of inhibitor and enzyme (0.1 to 1 μM), substrate nitrocefin, 480 nm, error ±10%

Sequence of L1 metallo-β-lactamase (class B) (P52700 34-290): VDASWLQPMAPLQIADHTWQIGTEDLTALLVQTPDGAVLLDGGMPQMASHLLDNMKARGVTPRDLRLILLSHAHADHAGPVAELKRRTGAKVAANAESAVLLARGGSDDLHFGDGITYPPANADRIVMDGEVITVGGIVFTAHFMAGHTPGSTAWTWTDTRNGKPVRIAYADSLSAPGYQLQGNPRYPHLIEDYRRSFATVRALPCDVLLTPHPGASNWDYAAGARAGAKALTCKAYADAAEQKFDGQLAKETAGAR
Sequence of TEM-1 (class A) serine β-lactamase (P62593 24-286 limits assumed): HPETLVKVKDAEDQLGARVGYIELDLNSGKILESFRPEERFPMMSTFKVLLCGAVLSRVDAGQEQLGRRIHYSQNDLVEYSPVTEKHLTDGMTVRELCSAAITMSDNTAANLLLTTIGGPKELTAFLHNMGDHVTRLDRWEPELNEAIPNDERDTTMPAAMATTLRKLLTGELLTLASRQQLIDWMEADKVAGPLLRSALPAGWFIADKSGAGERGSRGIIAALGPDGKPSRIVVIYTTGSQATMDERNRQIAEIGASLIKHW
Sequence of BC1 metallo-β-lactamase (class B) (P04190 31-257): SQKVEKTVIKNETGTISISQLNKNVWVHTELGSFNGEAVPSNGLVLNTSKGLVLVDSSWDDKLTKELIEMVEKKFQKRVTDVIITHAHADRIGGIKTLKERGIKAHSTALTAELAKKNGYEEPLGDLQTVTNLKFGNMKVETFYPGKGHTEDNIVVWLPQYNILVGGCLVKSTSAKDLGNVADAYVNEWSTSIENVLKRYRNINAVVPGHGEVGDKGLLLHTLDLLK
Sequence of Enterobacter cloacae P99 (class C) serine β-lactamase (P05364 21-381): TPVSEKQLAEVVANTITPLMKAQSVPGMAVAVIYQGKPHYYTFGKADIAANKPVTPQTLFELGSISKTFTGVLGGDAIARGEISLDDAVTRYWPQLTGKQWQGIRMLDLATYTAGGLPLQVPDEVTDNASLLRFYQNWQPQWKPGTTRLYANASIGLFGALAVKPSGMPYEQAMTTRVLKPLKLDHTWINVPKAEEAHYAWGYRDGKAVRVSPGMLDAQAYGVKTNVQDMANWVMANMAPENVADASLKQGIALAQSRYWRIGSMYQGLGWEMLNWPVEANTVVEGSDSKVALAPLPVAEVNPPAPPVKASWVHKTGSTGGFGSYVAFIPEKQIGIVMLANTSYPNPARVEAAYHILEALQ

Structure (SMILES) | IC50 [1, 7] | IC50 [2] | IC50 [3, 8] | IC50 ([1]; read-out: Inhibition IC50, L1 (Class B) (Metallo), 4 min incubation of inhibitor and enzyme (0.1 to 1 μM), substrate nitrocefin, 480 nm, error ±10%) | IC50 [2, 9] | ability to inhibit the class B β-lactamases [4] | IC50 [5] | IC50 [3, 10] | IC50 [1] | broad spectrum inhibitory activity [6] | IC50 [3]
C[C@]1(Cn2ccnn2)[C@H](C(=O)O)N2C(=O)C[C@H]2S1(=O)=O [Tazobactam] | > 2000 µM | > 2000 µM |  |  |  |  |  |  |  |  | 
CC1(C)[C@H](C(=O)O)N2C(=O)C(CO)C2S1(=O)=O (single isomer, unassigned) [Compound 27, Sodium Salt of 6α-(hydroxymethyl)penicillinate-1,1-dioxide, reference compound] |  |  | 10 µM | > 2000 µM | > 2000 µM | none of the latter, previously known, 6-(hydroxymethyl)penicillinates possess such ability |  |  |  |  | 
CC1(C)S[C@@H]2[C@@H](CS)C(=O)N2[C@H]1C(=O)[O-].[Na+] [Compound 21, Sodium Salt of 6α-(mercaptomethyl)penicillinate] | 81.4 µM | 7.6 µM | 3.75 µM |  |  | possess the ability to inhibit the class B β-lactamases | 648 µM |  |  |  | 
CC1(C)S[C@@H]2C(CO)C(=O)N2[C@H]1C(=O)O (single isomer, unassigned) [Compound 28, Sodium Salt of 6α-(hydroxymethyl)penicillinate, reference compound] |  | > 2000 µM |  |  |  | none of the latter, previously known, 6-(hydroxymethyl)penicillinates possess such ability | 275 µM | 96.2 µM | > 2000 µM |  | 
CC1(C)[C@H](C(=O)[O-])N2C(=O)[C@@H](CS)[C@H]2S1(=O)=O.[Na+] [Compound 13, Sodium Salt of 6β-(mercaptomethyl)penicallin acid 1,1-dioxide] | 0.13 µM | 64 µM |  |  |  | possess the ability to inhibit the class B β-lactamases | 6.8 µM | 10.5 µM |  | excellent broad spectrum inhibitory activity | 
CC1(C)[C@H](C(=O)O)N2C(=O)C(CO)C2S1(=O)=O (single isomer, unassigned) [Compound 15, Sodium Salt of 6β-(hydroxymethyl)penicillinate-1,1-dioxide, reference compound] |  | > 2000 µM | 3.9 µM |  |  | none of the latter, previously known, 6-(hydroxymethyl)penicillinates possess such ability |  |  | > 2000 µM |  | 
CC1(C)[C@H](C(=O)[O-])N2C(=O)[C@H](CS)[C@H]2S1(=O)=O.[Na+] [Compound 25, Sodium Salt of 6α-(mercaptomethyl)penicallin acid 1,1-dioxide] | 0.82 µM | 770 µM |  |  |  | possess the ability to inhibit the class B β-lactamases | 51.7 µM |  |  |  | 7.5 µM
CC1(C)S[C@@H]2C(CS)C(=O)N2[C@H]1C(=O)[O-].[Na+] (stereo partly drawn) [Compound 9, Sodium Salt of 6β-(mercaptomethyl)penicillanic acid] | 72.2 µM | 12.3 µM | 0.1 µM |  |  | possess the ability to inhibit the class B β-lactamases | 601 µM |  |  |  | 
CC1(C)S[C@@H]2C(CO)C(=O)N2[C@H]1C(=O)O (single isomer, unassigned) [Compound 16, Sodium Salt of 6β-(hydroxymethyl)penicillinate, reference compound] | > 2000 µM |  |  |  | > 2000 µM | none of the latter, previously known, 6-(hydroxymethyl)penicillinates possess such ability | 752 µM | 409 µM |  |  | 
